Experiments:
[1] = test system: A549 cells; test: Cytotoxicity against A549 cells, Alamar Blue; assay type: cell-based; conditions: Supplementary Table 1, compound 0.5 mM, percentage of controls (n=1); for viability at 500 µM: Homo sapiens, A549, 65 h
Outline: (§1)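 Alamar Blue read-out after a 5 h dye incubation that followed ~65 h compound exposure. Cells: HeLa or A549, 2 × 10^4/well, DMEM + 10% FCS + 2 mM L-Glutamine.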

[2] = test system: HeLa cells; test: cells; conditions: for viability at 500 µM: 65 h, read-out: HeLa Cells Alamar Blue; for HeLa Cells Alamar Blue: Supplementary Table 1, compound 0.5 mM, percentage of controls, mean ± SD (n=3) or SE (n=2)
Outline: as §1

| SMILES | viability at 500 µM [1] [%] | viability at 500 µM ([2]; Homo sapiens, HeLa) [%] | A549 Cells Alamar Blue [1] | HeLa Cells Alamar Blue [2] | CC50 ([2]; Homo sapiens, HeLa, read-out: HeLa ED50) [µM] |
| --- | --- | --- | --- | --- | --- |
| Cc1ccccc1S(N)(=O)=O [compound 355, 2‐methylbenzene‐1‐sulfonamide] | 87.9 | 89.1 ± 16.6 | – | – | – |
| N#CCCn1cccc1 [compound 50, 3‐(1H‐pyrrol‐1‐yl)propanenitrile] | 140 | 75.4 ± 6.4 | – | – | – |
| COc1ccccc1CCC(=O)O [compound 452, 3‐(2‐methoxyphenyl)propanoic acid] | 61.6 | 97.3 ± 7.2 | – | – | – |
| O=C(O)c1ccncc1 [compound 60, isonicotinic acid] | 118 | 98.3 ± 12.5 | – | – | – |
| NCc1ccccc1-n1cccc1 [compound 363, [2‐(1H‐pyrrol‐1‐yl)phenyl]methylamine] | 45.6 | 42.6 ± 11.7 | – | – | – |
| NCc1ccc(CN2CCCCC2)cc1 [compound 658, [4‐(piperidinomethyl)phenyl]methylamine] | – | – | 123.5 percentage of controls | 22.8 ± 5.5 percentage of controls | – |
| O=C(O)c1cc2ccccc2[nH]1 [compound 275, 1H‐indole‐2‐carboxylic acid] | 67.3 | 89.7 ± 16.4 | – | – | – |
| NC(=S)COc1cccc(Cl)c1 [compound 633, 2‐(3‐chlorophenoxy)ethanethioamide] | 90.3 | 46.9 ± 11.1 | – | – | – |
| CNCc1ccc2ncccc2c1 [compound 366, N‐methyl‐N‐(quinolin‐6‐ylmethyl)amine] | 74.6 | 64.6 ± 11.4 | – | – | – |
| Nc1ccc(Cn2ccnc2)cc1 [compound 375, 4‐(1H‐imidazol‐1‐ylmethyl)aniline] | 90.7 | 88 ± 18.8 | – | – | – |
| NCc1cc(Cl)cc(Cl)c1 [compound 405, 3,5‐dichlorobenzylamine] | 84.1 | 77.7 ± 13.9 | – | – | – |
| CC(=O)c1cccc(F)c1 [compound 125, 1‐(3‐fluorophenyl)ethan‐1‐one] | 101 | 83 ± 14.8 | – | – | – |
| CN1CCN(c2ccc(N)cc2)CC1 [compound 562, 4‐(4‐methylpiperazino)aniline] | 17.5 | 8.2 ± 6.5 | – | – | – |
| Cc1cc(CN)n(C)n1 [compound 73, (1,3‐dimethyl‐1H‐pyrazol‐5‐yl)methylamine] | – | – | 107.6 percentage of controls | 91.3 ± 0.6 percentage of controls | – |
| Cc1ccc2oc(=O)ccc2c1 [compound 265, 6‐methyl‐2H‐chromen‐2‐one] | 63.8 | 95.8 ± 17.2 | – | – | – |
| O=C(O)c1ccc(C(F)(F)F)cc1 [compound 539, 4‐(trifluoromethyl)benzoic acid] | 104 | 92.4 ± 8.2 | – | – | – |
| CC(=O)c1nccs1 [compound 79, 1‐(1,3‐thiazol‐2‐yl)ethan‐1‐one] | 94.5 | 103 ± 16.6 | – | – | – |
| Cc1nn(-c2ccccc2)c(C)c1CO [compound 636, (3,5‐dimethyl‐1‐phenyl‐1H‐pyrazol‐4‐yl)methanol] | – | – | 94.9 percentage of controls | 73 ± 13.4 percentage of controls | – |
| COc1ccc(Cl)cc1N [compound 246, 5‐chloro‐2‐methoxyaniline] | 113 | 113 ± 16.7 | – | – | – |
| Nc1ccccc1-n1cccn1 [compound 260, 2‐(1H‐pyrazol‐1‐yl)aniline] | 97.3 | 98.1 ± 5.6 | – | – | – |
| OC1CCSCC1 [compound 47, tetrahydro‐2H‐thiopyran‐4‐ol] | 74.9 | 95 ± 10 | – | – | – |
| Cc1c(CO)cnn1-c1ccccc1 [compound 523, (5‐methyl‐1‐phenyl‐1H‐pyrazol‐4‐yl)methanol] | – | – | 57.2 percentage of controls | 75.9 ± 13.5 percentage of controls | – |

| SMILES | viability at 500 µM [1] [%] | viability at 500 µM ([2]; Homo sapiens, HeLa) [%] | A549 Cells Alamar Blue [1] | HeLa Cells Alamar Blue [2] | CC50 ([2]; Homo sapiens, HeLa, read-out: HeLa ED50) [µM] |
| --- | --- | --- | --- | --- | --- |
| NCc1cccc(CN2CCCCC2)c1 [compound 655, 3‐piperidin‐1‐ylmethyl benzylamine] | 126 | 73.7 ± 15.9 | – | – | – |
| Cc1ccc(O)c2c1CCC2 [compound 173, 7‐methylindan‐4‐ol] | 53.7 | 43.2 ± 15.6 | – | – | – |
| CC(=O)c1ccc(F)c(Cl)c1 [compound 367, 1‐(3‐chloro‐4‐fluorophenyl)ethan‐1‐one] | 58.8 | 98.7 ± 6.5 | – | – | – |
| CCCCCSc1nnc[nH]1 [compound 357, 3‐(pentylthio)‐4H‐1,2,4‐triazole] | 45.3 | 64.5 ± 8.6 | – | – | – |
| NC(=O)c1ccccc1Cl [compound 230, 2‐chlorobenzamide] | 92.9 | 104 ± 8.8 | – | – | – |
| Nc1nc(-c2ccccc2)ns1 [compound 423, 3‐phenyl‐1,2,4‐thiadiazol‐5‐amine] | 52.7 | 82.7 ± 3.9 | – | – | – |
| N#Cc1ccsc1N [compound 68, 2‐aminothiophene‐3‐carbonitrile] | 136 | 102 ± 3.1 | – | – | – |
| Nc1ccccc1-c1cccnc1 [compound 348, 2‐pyridin‐3‐ylaniline] | 85.3 | 18.2 ± 10 | – | – | 21.8 ± 1.8 |
| OCc1ccc2ncccc2c1 [compound 255, 6‐quinolinylmethanol] | 84 | 89.6 ± 6.8 | – | – | – |
| OCc1ccc(-n2ccnc2)cc1 [compound 386, [4‐(1H‐imidazol‐1‐yl)phenyl]methanol] | 101 | 103 ± 15.3 | – | – | – |
| NCc1ccc2sccc2c1 [compound 294, 1‐benzothiophen‐5‐ylmethylamine] | 70.6 | 98.5 ± 13.1 | – | – | – |
| OCc1ccc(-c2ccccn2)cc1 [compound 490, (4‐pyrid‐2‐ylphenyl)methanol] | 118 | 102 ± 13.5 | – | – | – |
| OCc1cccc(Oc2ccccn2)c1 [compound 630, [3‐(pyrid‐2‐yloxy)phenyl]methanol] | 98.3 | 80 ± 1 | – | – | – |
| OCc1csc(-c2ccccc2)n1 [compound 557, (2‐phenyl‐1,3‐thiazol‐4‐yl)methanol] | 78.4 | 58.1 ± 13.4 | – | – | – |
| CNCc1ccc(-c2nccs2)cc1 [compound 654, N‐methyl‐4‐(1,3‐thiazol‐2‐yl)benzylamine] | 114 | 66.2 ± 16.9 | – | – | – |
| O=C(O)c1ccc(CN2CCCC2)cc1 [compound 665, 4‐(pyrrolidin‐1‐ylmethyl)benzoic acid] | 104 | 90.3 ± 6.3 | – | – | – |
| Oc1ccc(SC(F)(F)F)cc1 [compound 584, 4‐[(trifluoromethyl)thio]phenol] | 68.4 | 97.5 ± 15.9 | – | – | – |
| OCc1ccc(-n2cccn2)cc1 [compound 385, [4‐(1H‐pyrazol‐1‐yl)phenyl]methanol] | 118 | 83.4 ± 12.4 | – | – | – |
| COC(=O)c1ccccc1F [compound 220, methyl 2‐fluorobenzoate] | 99.5 | 108 ± 17.6 | – | – | – |
| CCc1nc(C)c[nH]1 [compound 25, 2‐ethyl‐4‐methyl‐1H‐imidazole] | 83.9 | 98 ± 7.8 | – | – | – |
| O=C(O)c1cccc(-c2ccsc2)c1 [compound 650, 3‐thien‐3‐ylbenzoic acid] | 165 | 114 ± 15.9 | – | – | – |
| Cn1c(C(=O)O)cc2sccc21 [compound 464, 4‐methyl‐4H‐thieno[3,2‐b]pyrrole‐5‐carboxylic acid] | – | – | 89.4 percentage of controls | 93.5 ± 4.2 percentage of controls | – |
